Calls of active or inactive are those of the source.
Assays:
[1] = biological target: Glyceraldehyde-3-phosphate dehydrogenase (Homo sapiens, UniProt P04406)
[2] = biological target: T1, Alkaline phosphatase, tissue-nonspecific isozyme (Homo sapiens, UniProt P05186); experiment: potency against alkaline phosphatase TNAP – biochemical, luminescent, dose response, SAR follow-up (AID 1056)
T1 sequence (P05186 whole entry): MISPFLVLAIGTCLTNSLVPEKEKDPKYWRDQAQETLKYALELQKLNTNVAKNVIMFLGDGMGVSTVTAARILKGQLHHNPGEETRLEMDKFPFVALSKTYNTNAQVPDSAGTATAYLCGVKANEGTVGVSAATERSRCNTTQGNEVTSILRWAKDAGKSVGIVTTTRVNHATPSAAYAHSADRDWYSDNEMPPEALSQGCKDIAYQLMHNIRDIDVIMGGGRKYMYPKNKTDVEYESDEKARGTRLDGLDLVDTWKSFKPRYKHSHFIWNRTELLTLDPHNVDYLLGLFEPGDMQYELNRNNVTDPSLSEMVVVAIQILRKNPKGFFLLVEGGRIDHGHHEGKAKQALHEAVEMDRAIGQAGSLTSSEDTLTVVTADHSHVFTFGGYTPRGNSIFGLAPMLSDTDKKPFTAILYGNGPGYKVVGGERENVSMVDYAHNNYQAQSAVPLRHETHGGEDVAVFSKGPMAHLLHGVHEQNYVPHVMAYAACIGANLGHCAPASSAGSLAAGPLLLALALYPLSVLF

[3] = biological target: T2, Ubiquitin-conjugating enzyme E2 N (Homo sapiens, UniProt P61088); assay type: functional;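 also: Dose-response confirmation in a TR-FRET assay detecting UBC13-driven polyubiquitin chain formation, inhibition measured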
T2 sequence (P61088 whole entry): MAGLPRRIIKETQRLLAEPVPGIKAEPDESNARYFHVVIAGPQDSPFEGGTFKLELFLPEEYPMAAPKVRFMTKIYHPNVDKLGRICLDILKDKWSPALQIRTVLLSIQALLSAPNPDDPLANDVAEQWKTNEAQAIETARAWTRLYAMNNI

BJ [4] = experiment: BJ-TERT fibroblast viability loss – cell-based, RAS-independent, luminescence, dose response (AID 1933); assay type: functional; details: Homo sapiens
BJ [5] = experiment: cells; assay type: functional, cell-based; details: Homo sapiens
BJ [6] = experiment: BJ-TERT-LT-ST fibroblast viability loss – cell-based, RAS-independent, luminescence, dose response (AID 1935); assay type: functional; details: Homo sapiens;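 also: BJ fibroblasts immortalized with TERT plus LT and ST oncogenes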
[7] = DRD fibroblast viability loss – cell-based, non-viral oncogenic, luminescence, dose response (AID 1934); assay type: functional; details: Homo sapiens
[8] = HEK-293T viability loss after treatment – luminescence, T-cell screen hits, cytotoxicity control for TCR NF-kB inhibitor project, dose response (AID 489026); assay type: functional, cell-based;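 also: cells exposed to compound about 14 hours before the viability readout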
BJ [9] = experiment: growth inhibition of engineered Ras-driven BJ cells – cell-based, alamar blue fluorescence, cherrypicked samples, dose response (AID 2631); assay type: functional; details: Homo sapiens;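 also: confirmatory dose-response assay in RAS-dependent BJ fibroblasts engineered with TERT, LT and ST, with cytotoxicity read by fluorescence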
Escherichia coli = experiment: microbe, parasite or virus in culture
HEK293 [10] = experiment: inhibition of NOD1-driven NF-kB reporter – cell-based, luminescence, uHTS, primary screen (AID 1578); assay type: functional; details: Homo sapiens
HEK293 [11] = experiment: cells; assay type: functional, cell-based; details: Homo sapiens
HEK293 [12] = experiment: cells; assay type: functional, cell-based; details: Homo sapiens; remark: listed apart in the source
HEK293 [13] = experiment: NOD2 signaling inhibitors in MDP-stimulated cells, cell-based, uHTS, luminescence (AID 2001); assay type: functional; details: Homo sapiens
Leucine aminopeptidase = biological target: T3, Leucine aminopeptidase (Plasmodium falciparum 3D7, UniProt Q8IL11); experiment: P. falciparum M17LAP inhibitors, primary screen, biochemical, fluorogenic H-Leu-NHMec substrate, 1536-well (AID 1619); assay type: functional
T3 sequence (Q8IL11 whole entry): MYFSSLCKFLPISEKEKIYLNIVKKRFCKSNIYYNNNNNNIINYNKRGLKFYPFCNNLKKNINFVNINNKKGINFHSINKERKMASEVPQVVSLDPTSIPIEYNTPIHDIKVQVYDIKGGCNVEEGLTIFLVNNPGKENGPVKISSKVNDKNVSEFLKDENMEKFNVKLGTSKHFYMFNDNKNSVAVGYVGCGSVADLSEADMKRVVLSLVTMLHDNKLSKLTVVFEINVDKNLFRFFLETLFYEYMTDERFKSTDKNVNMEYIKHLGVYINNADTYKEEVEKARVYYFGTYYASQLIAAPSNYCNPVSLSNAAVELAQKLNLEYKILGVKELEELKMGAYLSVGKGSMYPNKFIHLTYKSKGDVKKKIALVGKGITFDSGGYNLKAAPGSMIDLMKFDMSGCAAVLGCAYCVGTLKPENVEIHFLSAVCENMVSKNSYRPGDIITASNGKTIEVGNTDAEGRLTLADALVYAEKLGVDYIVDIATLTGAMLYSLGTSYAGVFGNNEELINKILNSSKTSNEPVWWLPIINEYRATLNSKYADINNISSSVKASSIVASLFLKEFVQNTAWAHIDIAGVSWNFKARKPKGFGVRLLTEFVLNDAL

Genome polyprotein = Genome polyprotein (dengue virus type 2, UniProt P29990); experiment: flavivirus cap methylation enzyme inhibition – biochemical, confirmation dose response, primary screen (AID 588689); assay type: functional
[14] = viability of uninfected HEp-2 cells – cell-based, HTS, cytotoxicity control for RSV inhibitor project, dose response (AID 2410); assay type: functional; details: human respiratory syncytial virus
Coagulation factor XII = biological target: T4, Coagulation factor XII (Homo sapiens, UniProt P00748); assay type: functional;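 also: activated factor XIIa alpha cleaving a fluorogenic AMC peptide substrate; inhibitor potency from loss of enzyme activity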
T4 sequence (P00748 whole entry): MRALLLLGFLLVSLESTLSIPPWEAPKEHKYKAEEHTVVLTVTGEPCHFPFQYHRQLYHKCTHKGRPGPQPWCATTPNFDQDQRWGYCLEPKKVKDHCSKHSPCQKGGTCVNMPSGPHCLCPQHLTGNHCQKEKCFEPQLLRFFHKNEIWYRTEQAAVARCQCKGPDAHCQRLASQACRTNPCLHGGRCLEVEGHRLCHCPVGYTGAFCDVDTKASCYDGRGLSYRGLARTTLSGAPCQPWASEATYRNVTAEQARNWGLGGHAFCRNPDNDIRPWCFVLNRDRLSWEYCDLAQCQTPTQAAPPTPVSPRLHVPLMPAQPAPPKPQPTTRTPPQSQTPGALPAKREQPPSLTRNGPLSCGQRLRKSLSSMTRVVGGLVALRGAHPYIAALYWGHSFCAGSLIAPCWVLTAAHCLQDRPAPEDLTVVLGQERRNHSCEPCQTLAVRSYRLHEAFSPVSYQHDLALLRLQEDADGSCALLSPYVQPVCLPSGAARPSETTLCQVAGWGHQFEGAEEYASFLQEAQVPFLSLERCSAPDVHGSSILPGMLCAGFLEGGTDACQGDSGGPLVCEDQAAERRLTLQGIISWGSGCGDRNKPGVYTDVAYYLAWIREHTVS

[15] = biological target: T5, High affinity choline transporter 1 (Homo sapiens, UniProt Q9GZV3); experiment: human choline transporter blockers, potency – cell-based, 5-point CRC, membrane potential dye, dose response (AID 504840); assay type: functional
T5 sequence (Q9GZV3 whole entry): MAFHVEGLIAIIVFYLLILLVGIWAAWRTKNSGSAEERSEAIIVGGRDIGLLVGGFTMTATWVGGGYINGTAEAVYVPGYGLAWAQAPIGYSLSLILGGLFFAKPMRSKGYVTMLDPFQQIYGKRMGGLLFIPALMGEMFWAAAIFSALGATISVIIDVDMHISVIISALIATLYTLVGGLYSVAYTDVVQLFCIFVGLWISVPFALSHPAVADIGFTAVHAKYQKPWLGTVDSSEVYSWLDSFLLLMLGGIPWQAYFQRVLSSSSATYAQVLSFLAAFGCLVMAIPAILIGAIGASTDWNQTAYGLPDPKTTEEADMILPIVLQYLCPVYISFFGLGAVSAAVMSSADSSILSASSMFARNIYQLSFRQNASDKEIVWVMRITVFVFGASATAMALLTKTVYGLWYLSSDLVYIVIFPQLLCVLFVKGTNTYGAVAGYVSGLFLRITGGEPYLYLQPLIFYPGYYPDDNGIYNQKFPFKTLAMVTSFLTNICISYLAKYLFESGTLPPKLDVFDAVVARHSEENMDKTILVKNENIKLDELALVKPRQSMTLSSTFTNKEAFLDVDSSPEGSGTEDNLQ

Chain of Glyceraldehyde-3-phosphate dehydrogenase (P04406 whole entry): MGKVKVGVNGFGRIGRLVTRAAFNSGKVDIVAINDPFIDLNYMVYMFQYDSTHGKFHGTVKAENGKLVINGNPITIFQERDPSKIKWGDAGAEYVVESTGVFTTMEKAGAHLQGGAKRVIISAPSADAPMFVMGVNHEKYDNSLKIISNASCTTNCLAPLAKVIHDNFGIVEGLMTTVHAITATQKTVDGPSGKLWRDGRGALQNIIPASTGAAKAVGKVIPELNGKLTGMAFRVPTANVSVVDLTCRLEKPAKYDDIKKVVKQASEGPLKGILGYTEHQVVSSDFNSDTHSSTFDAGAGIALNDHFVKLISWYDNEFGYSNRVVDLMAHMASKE
Chain of Genome polyprotein (P29990 2492-3391 limits assumed): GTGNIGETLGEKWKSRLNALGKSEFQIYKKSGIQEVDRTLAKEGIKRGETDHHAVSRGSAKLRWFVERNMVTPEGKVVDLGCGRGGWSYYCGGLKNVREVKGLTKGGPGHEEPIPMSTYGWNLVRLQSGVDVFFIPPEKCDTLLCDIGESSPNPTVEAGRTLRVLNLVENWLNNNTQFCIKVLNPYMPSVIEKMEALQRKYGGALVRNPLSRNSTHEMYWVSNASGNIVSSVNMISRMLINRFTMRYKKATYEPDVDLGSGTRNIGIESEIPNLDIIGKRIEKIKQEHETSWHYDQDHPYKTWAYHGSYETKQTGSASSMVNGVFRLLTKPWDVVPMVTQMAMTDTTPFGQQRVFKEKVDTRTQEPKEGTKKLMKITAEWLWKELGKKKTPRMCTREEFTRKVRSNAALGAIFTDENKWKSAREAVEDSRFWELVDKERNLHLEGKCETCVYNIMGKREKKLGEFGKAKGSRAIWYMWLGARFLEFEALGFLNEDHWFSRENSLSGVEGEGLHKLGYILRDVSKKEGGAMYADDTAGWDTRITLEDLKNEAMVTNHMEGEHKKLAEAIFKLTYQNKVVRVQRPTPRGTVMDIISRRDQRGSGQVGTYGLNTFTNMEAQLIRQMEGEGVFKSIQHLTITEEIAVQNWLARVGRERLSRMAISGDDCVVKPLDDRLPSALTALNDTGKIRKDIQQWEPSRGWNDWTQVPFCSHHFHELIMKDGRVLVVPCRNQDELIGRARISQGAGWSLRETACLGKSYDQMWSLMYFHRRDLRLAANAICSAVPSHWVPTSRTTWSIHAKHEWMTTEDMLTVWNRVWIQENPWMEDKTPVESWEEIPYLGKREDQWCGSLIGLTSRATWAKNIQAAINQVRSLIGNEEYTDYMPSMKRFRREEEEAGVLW

CCOC(=O)c1nnc(-c2ccccc2)o1
IC50 [1]: > 100 µM (not active) | IC50 [2]: > 100 µM (inactive)

Cc1ccc2c(c1)C1CN(C)CCC1N2C(=O)CCCN1C(=O)c2cccc3cccc(c23)C1=O (stereo not drawn)
IC50 [3]: > 20 µM (inactive)

O=C(Nc1ccc([N+](=O)[O-])cc1)Nc1ccon1
EC50 (BJ [4]): 1.57 µM (active) | EC50 (BJ [5]): 12.1 µM (active) | EC50 (BJ [6]): 4.66 µM (active) | EC50 [7]: 1.21 µM (active) | IC50 [8]: > 80 µM (inactive) | EC50 (BJ [9]): < 0.104 µM (active)

CCNC(=O)OCC12CC3CC(CC(C3)C1)C2
AC50 (Escherichia coli): 33.5 µM (active)

COc1ccc(NC(=O)Nc2nnc(-c3ccncc3)s2)cc1
EC50 (HEK293 [10]): 5.39 µM (active) | IC50 (HEK293 [11]): 5.85 µM (active) | IC50 (HEK293 [12]): > 20 µM (inactive) | IC50 (HEK293 [13]): 6.01 µM (active)

O=C1/C(=C/c2ccc(C(=O)O)cc2)CCC/C1=C\c1ccc(C(=O)O)cc1
IC50 (Leucine aminopeptidase): 62.7 µM (active) | IC50 (Genome polyprotein): > 100 µM (active)

CCn1c2ccc(C)cc2c2nnc(SCCN3CCOCC3)nc21
AC50 (Escherichia coli): 89.7 µM (active)

Cc1c(NC(=S)NC(=O)c2ccc(-c3ccc(Cl)cc3)o2)cccc1C(=O)O
IC50 (Leucine aminopeptidase): 29.7 µM (active) | CC50 [14]: 35.4 µM (active)

Cc1ccc(-c2[nH]nc3c2C(c2ccoc2)C(C#N)=C(N)O3)cc1C (stereo not drawn)
IC50 (Leucine aminopeptidase): 3.65 µM (active)

Cc1ccc(NC(=O)NCc2ccc3c(c2)OCO3)cc1
IC50 (Coagulation factor XII): > 50 µM (inactive)

O=C(O)C1CCN(c2nc(-c3ccccc3)nc3c2oc2ccccc23)CC1
IC50 (Leucine aminopeptidase): 30.1 µM (active) | IC50 [15]: 9.12 µM (active)
